Experimental data from patent US12195427B2, “MASP-2 inhibitors and methods of use” (priority 2018, dated 2025).

Target: MASP-2 CCP2-SP (Homo sapiens (Human), UniProt O00187)
Assay: MASP-2 co-crystallization, X-ray crystallography and structure analysis (H-bonds, van der Waals contacts);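 on Ligand-pharmacophore element distance, pharmacophore element C2: distance from averaged pharmacophore element to bound ligand; missing value means element absent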;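 on Ligand-pharmacophore element distance, pharmacophore element C3: distance from averaged pharmacophore element to bound ligand; missing value means element absent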;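 on Ligand-pharmacophore element distance, pharmacophore element C4: distance from averaged pharmacophore element to bound ligand; missing value means element absent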;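 on Ligand-pharmacophore element distance, pharmacophore element C5: distance from averaged pharmacophore element to bound ligand; missing value means element absent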
Parameters: van der Waals contact distance, MASP-2 HIS 483 atom CD2 / van der Waals contact distance, MASP-2 HIS 483 atom NE2 / van der Waals contact distance, SER 654 C to compound atom / van der Waals contact distance, SER 654 O to compound atom / van der Waals contact distance, TRP 655 C to compound atom / van der Waals contact distance, MASP-2 GLY 528 atom CA / van der Waals contact distance TRP 655 atom CZ3 / van der Waals contact distance TRP 655 atom N / van der Waals contact distance TRP 655 atom CE3 / van der Waals contact distance GLY 656 atom C / van der Waals contact distance GLY 656 atom CA / van der Waals contact distance GLY 656 atom O / van der Waals contact distance, MASP-2 TYR 607 atom CD1 / van der Waals contact distance, MASP-2 PRO 606 atom O / d(C3,CA1) / d(CA1,N1)2 / d(H4,O1) / d(H4,O2) / d(O1,O2) / d(CA1,O2) / d(CA6,O1) / d(CA6,O2) / d(CA1,C5) / d(O2,H3) / d(N2,C2) / d(CA5,N2) / d(N2,C4) / d(N2,C6) / d(N2,CA3) / d(N2,O3) / d(O4,H2): unit not given beside the values
Settings: for Ligand-pharmacophore element distance, pharmacophore element C2 / Ligand-pharmacophore element distance, pharmacophore element C3 / Ligand-pharmacophore element distance, pharmacophore element C4 / Ligand-pharmacophore element distance, pharmacophore element C5 / Ligand-pharmacophore element distance, pharmacophore element C6 / Ligand-pharmacophore element distance, pharmacophore element C7 / Ligand-pharmacophore element distance, pharmacophore element CA1 / Ligand-pharmacophore element distance, pharmacophore element CA2 / Ligand-pharmacophore element distance, pharmacophore element CA3 / Ligand-pharmacophore element distance, pharmacophore element CA4 / Ligand-pharmacophore element distance, pharmacophore element CA5 / Ligand-pharmacophore element distance, pharmacophore element CA6: Table A4-1
From the text: This example illustrates the preparation of recombinant MASP-2 protein, based on UniProt O00187, human mannan-binding lectin serine protease 2. Expression constructs for human MASP-2 CCP2-SP and CCP2-SP-6HIS were generated for recombinant expression in E. coli cells.
Typically, crystallization hits were obtained by screening against […] 96-well crystallization reagent kits (GRAS6, GRAS2, Hampton Research; MORPHEUS, Molecular Dimensions; Wizard 1&2 Cryo, Rigaku Reagents) and crystal growth was inspected by optical microscopy. Crystals were used directly or further optimized for X-ray diffraction. Crystals were captured with cryogenic loops and dipped into liquid nitrogen directly or cryoprotected with a 20% glycerol in crystallization formulation before flash-cooling in liquid nitrogen.
Thereafter crystals are transferred once or twice for soaking within the crystallization solution containing the MASP-2 inhibitor.
Crystals were diffracted with synchrotron X-rays of […] and X-ray diffraction datasets were collected at beamlines SSRL BL9-2, BL14-1, BL12-2 as well as ALS sector 5 using Dectris Pilatus and Eiger detectors. Structures were determined by molecular replacement using portions of the structure 1Q3X as search models and partially refined with Buster 2.10.2 or Refmac 5.8. […] When multiple ligand poses were observed, for instance arising from multiple molecules in the asymmetric unit or refined dual poses within the same molecule, only one pose was selected and analyzed.
LigPlot+ calls these ‘nonbonded contacts’ or ‘hydrophobic contacts’. Despite the name, there are atom pairings that include possible H-bonds. Thus, in some instances, the Table A2 also contains H-bond interactions.

[1] = Table A5-1 pharmacophore: distance between elements, S2/S1 region
[2] = Table A5-2 pharmacophore distance, S3/S4 region
[3] = Table A7-1, between pharmacophore elements of the bound compound
[4] = Table A7-2, between pharmacophore elements of the bound compound

Sequence of MASP-2 CCP2-SP (O00187 445-686): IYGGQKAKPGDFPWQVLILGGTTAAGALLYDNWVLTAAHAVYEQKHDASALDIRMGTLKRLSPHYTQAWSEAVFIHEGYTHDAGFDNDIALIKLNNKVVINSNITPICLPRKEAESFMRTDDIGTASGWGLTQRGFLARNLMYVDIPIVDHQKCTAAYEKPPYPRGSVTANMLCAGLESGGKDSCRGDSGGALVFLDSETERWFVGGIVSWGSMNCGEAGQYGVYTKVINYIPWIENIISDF
Sequence of MASP-2 CCP2-SP (O00187 364-432 partner): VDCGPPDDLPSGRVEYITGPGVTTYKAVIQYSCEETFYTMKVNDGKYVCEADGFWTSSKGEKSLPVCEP

CC(NC(=O)C1CC(Cc2ccccc2)CN1)C(=O)NCc1cnc2c(c1)c(Cl)cn2C.Cl.Cl (stereo not drawn) [1450_B]
Ligand-pharmacophore element distance, pharmacophore element C2: 0
Ligand-pharmacophore element distance, pharmacophore element C3: 0
Ligand-pharmacophore element distance, pharmacophore element C4: 0
Ligand-pharmacophore element distance, pharmacophore element C5: 1.67
Ligand-pharmacophore element distance, pharmacophore element C6: 0
Ligand-pharmacophore element distance, pharmacophore element C7: 1.3
Ligand-pharmacophore element distance, pharmacophore element CA1: 0.94
Ligand-pharmacophore element distance, pharmacophore element CA2: 1.24
Ligand-pharmacophore element distance, pharmacophore element CA3: 0
Ligand-pharmacophore element distance, pharmacophore element CA4: 0
Ligand-pharmacophore element distance, pharmacophore element CA5: 0
Ligand-pharmacophore element distance, pharmacophore element CA6: 0
d(CA1,C5) [1]: 3.41
d(CA1,O1) [1]: 5.49
d(CA1,O2) [1]: 4.57
d(CA1,O4) [1]: 1.74
d(H4,O1) [1]: 3.14
d(H4,O2) [1]: 3.46
d(O1,O2) [1]: 3.83
d(N2,CA2) [2]: 6.07
d(O2,H3) [2]: 2.32
d(O2,N2) [2]: 2.67
a(C5, CA1, O1) (Table A6-1 pharmacophore angle): 150.20
a(CA1, O1, O2) (Table A6-1 pharmacophore angle): 98.92
a(O1, CA1, C7) (Table A6-1 pharmacophore angle): 139.92
a(O1, CA1, O4) (Table A6-1 pharmacophore angle): 66.73
a(O1, O2, H4) (Table A6-1 pharmacophore angle): 109.15
a(O1, O2, H3) (Table A6-2 pharmacophore angle): 123.50
a(O1, O2, N2) (Table A6-2 pharmacophore angle): 138.89
a(O2, N2, CA2) (Table A6-2 pharmacophore angle): 155.81
Pharmacophore torsion angle a(C5, CA1, O1, H4) [3]: 13.21
Pharmacophore torsion angle a(C7, CA1, O1, H4) [3]: −150.35
Pharmacophore torsion angle a(H4, O1, O2, H3) [3]: −176.95
Pharmacophore torsion angle a(H4, O1, O2, N2) [3]: 177.59
Pharmacophore torsion angle a(O1, H4, O2, CA1) [3]: −91.88
Pharmacophore torsion angle a(O1, O2, N2, CA2) [4]: 137.59

Cc1nc(N)ccc1CNC(=O)[C@H](C)NC(=O)[C@H]1C[C@H](Cc2cccc(-c3ccccc3)c2)CN1 [compound 1406, (2R,4S)-4-([1,1′-Biphenyl]-3-ylmethyl)-N—((S)-1-(((6-amino-2-methylpyridin-3-yl)methyl)amino)-1-oxopropan-2-yl)pyrrolidine-2-carboxamide Dihydrochloric acid]
H-bond distance to MASP-2 ASP 627 atom OD2 (Table A1 (H-Bonds), ASP 627 OD2): 3.22
H-bond distance to MASP-2 GLY 656 atom N (Table A1 (H-Bonds), GLY 656 N): 3.28
H-bond distance to MASP-2 GLY 656 atom O (Table A1 (H-Bonds), GLY 656 O): 2.76
H-bond distance to MASP-2 SER 654 atom O (Table A1 (H-Bonds), SER 654 O): 2.96
H-bond distance to MASP-2 SER 657 atom O (Table A1 (H-Bonds), SER 657 O): 2.78
van der Waals contact distance, MASP-2 amino acid atom to compound atom (Table A2): 3.74
van der Waals contact distance, MASP-2 ASP 526 atom C (Table A2-1): 3.55
van der Waals contact distance, MASP-2 ASP 526 atom CA (Table A2-1): 3.89
van der Waals contact distance, MASP-2 ASP 526 atom O (Table A2-1): 3.69
van der Waals contact distance, MASP-2 HIS 483 atom CD2 (Table A2-1): 3.7
van der Waals contact distance, MASP-2 HIS 483 atom NE2 (Table A2-1): 3.67
van der Waals contact distance, MASP-2 ALA 527 atom C (Table A2-2): 3.68
van der Waals contact distance, MASP-2 ALA 527 atom CA (Table A2-2): 3.83
van der Waals contact distance, MASP-2 amino acid atom to compound atom (Table A2-7: SER 628 (CB, O, OG)): 3.76
van der Waals contact distance, SER 654 C to compound atom (Table A2-11): 3.59
van der Waals contact distance, VAL 653 CG1 to compound atom (Table A2-11): 3.27
van der Waals contact distance TRP 655 atom CE3 (Table A2-13, MASP-2 TRP 655 CE3, compound atom in line below): 3.7
van der Waals contact distance TRP 655 atom CZ3 (Table A2-13, MASP-2 TRP 655 CZ3): 3.51
van der Waals contact distance TRP 655 atom N (Table A2-13, MASP-2 TRP 655 N): 3.85
Ligand-pharmacophore element distance, pharmacophore element C2: 0
Ligand-pharmacophore element distance, pharmacophore element C3: 0.12
Ligand-pharmacophore element distance, pharmacophore element C4: 0
Ligand-pharmacophore element distance, pharmacophore element C5: 0
Ligand-pharmacophore element distance, pharmacophore element C6: 0
Ligand-pharmacophore element distance, pharmacophore element C7: 0
Ligand-pharmacophore element distance, pharmacophore element CA1: 0.56
Ligand-pharmacophore element distance, pharmacophore element CA2: 0.42
Ligand-pharmacophore element distance, pharmacophore element CA3: 0
Ligand-pharmacophore element distance, pharmacophore element CA4: 1.59
Ligand-pharmacophore element distance, pharmacophore element CA5: 0
Ligand-pharmacophore element distance, pharmacophore element CA6: 0
d(C3,CA1) [1]: 2.86
d(CA1,N1)2 [1]: 1.38
d(CA1,O1) [1]: 4.36
d(CA1,O2) [1]: 4.00
d(H4,O1) [1]: 4.35
d(H4,O2) [1]: 3.89
d(O1,O2) [1]: 3.29
d(N2,CA2) [2]: 5.98
d(O2,H3) [2]: 4.44
d(O2,N2) [2]: 2.64
a(C3, CA1, O1) (Table A6-1 pharmacophore angle): 149.47
a(CA1, O1, O2) (Table A6-1 pharmacophore angle): 107.31
a(O1, O2, H4) (Table A6-1 pharmacophore angle): 133.28
a(N1, CA1, O1) b) (Table A6-1 pharmacophore angle, Methyl-amino-pyridine compounds): 173.92
a(O1, O2, H3) (Table A6-2 pharmacophore angle): 147.38
a(O1, O2, N2) (Table A6-2 pharmacophore angle): 140.17
a(O2, N2, CA2) (Table A6-2 pharmacophore angle): 156.30
Pharmacophore torsion angle a(C3, CA1, O1, H4) [3]: 23.93
Pharmacophore torsion angle a(H4, O1, O2, H3) [3]: 50.99
Pharmacophore torsion angle a(H4, O1, O2, N2) [3]: 135.75
Pharmacophore torsion angle a(N1, CA1, O1, H4) [3]: −2.51
Pharmacophore torsion angle a(O1, H4, O2, CA1) [3]: −83.05
Pharmacophore torsion angle a(O1, O2, N2, CA2) [4]: 127.54
Pharmacophore torsion angle a(O1, O2, N2, CA4) [4]: 102.90

CC(NC(=O)C(CCc1ccccc1)NCCCc1ccc(O)cc1)C(=O)NCc1ccc(C(=N)N)cc1.Cl.Cl (stereo not drawn) [1145_A]
Ligand-pharmacophore element distance, pharmacophore element C2: 0
Ligand-pharmacophore element distance, pharmacophore element C3: 0
Ligand-pharmacophore element distance, pharmacophore element C4: 0
Ligand-pharmacophore element distance, pharmacophore element C5: 0
Ligand-pharmacophore element distance, pharmacophore element C6: 0
Ligand-pharmacophore element distance, pharmacophore element C7: 0
Ligand-pharmacophore element distance, pharmacophore element CA1: 0.47
Ligand-pharmacophore element distance, pharmacophore element CA2: 0.41
Ligand-pharmacophore element distance, pharmacophore element CA3: 1.22
Ligand-pharmacophore element distance, pharmacophore element CA4: 0
Ligand-pharmacophore element distance, pharmacophore element CA5: 0
Ligand-pharmacophore element distance, pharmacophore element CA6: 0
d(CA1,N1) [1]: 3.54
d(CA1,O1) [1]: 4.42
d(CA1,O2) [1]: 4.42
d(H4,O1) [1]: 4.89
d(H4,O2) [1]: 4.48
d(O1,O2) [1]: 3.28
d(N2,CA2) [2]: 5.91
d(N2,CA3) [2]: 5.59
d(N2,H1) [2]: 8.64
d(N2,O3) [2]: 7.97
d(O2,H3) [2]: 5.36
d(O2,N2) [2]: 2.77
a(CA1, O1, O2) (Table A6-1 pharmacophore angle): 111.73
a(O1, O2, H4) (Table A6-1 pharmacophore angle): 139.31
A(N1, CA1, O1) a) (Table A6-1 pharmacophore angle, all compounds with protonatable center N1 except Methyl-amino-pyridine): 162.28
a(O1, O2, H3) (Table A6-2 pharmacophore angle): 150.25
a(O1, O2, N2) (Table A6-2 pharmacophore angle): 136.24
a(O2, N2, CA2) (Table A6-2 pharmacophore angle): 153.28
a(O2, N2, CA3) (Table A6-2 pharmacophore angle): 161.48
a(O2, N2, H1) (Table A6-2 pharmacophore angle): 168.81
a(O2, N2, O3) (Table A6-2 pharmacophore angle): 168.41
Pharmacophore torsion angle a(H4, O1, O2, H3) [3]: 48.71
Pharmacophore torsion angle a(H4, O1, O2, N2) [3]: 124.15
Pharmacophore torsion angle a(N1, CA1, O2, H4) [3]: −128.41
Pharmacophore torsion angle a(O1, H4, O2, CA1) [3]: −59.90
Pharmacophore torsion angle a(O1, O2, N2, CA2) [4]: 140.87
Pharmacophore torsion angle a(O1, O2, N2, CA3) [4]: −15.65
Pharmacophore torsion angle a(O1, O2, N2, H1) [4]: −17.10
Pharmacophore torsion angle a(O1, O2, N2, O3) [4]: −10.98
